Results taken from patent US5541217A, “4-arylcyclopenta[c]pyrrole analgesics” (Ortho Pharmaceutical Corporation, priority 1995, dated 1996).

What follows are compounds tested on acetylcholine-bromide induced abdominal constriction response (assay: Mouse Acetylcholine Bromide-Induced Abdominal Constriction Assay). Settings: po, 30 min before i.p. 5.5 mg/kg acetylcholine bromide, 10 min observation.
Assay type: in vivo

Q: For `CN1C[C@H]2CC[C@](O)(c3ccccc3)[C@H]2C1` (relative stereo) [Cp-1], which “% Inhibition at 30 mg/kg” value is on record?
A: 87%

Q: Which “% Inhibition at 30 mg/kg” value does the source give for `CN1C[C@H]2CC[C@](O)(c3ccc(F)cc3)[C@H]2C1` (relative stereo) [Cp-2] here?
A: 87%

Q: `CN1C[C@H]2CC[C@](O)(c3cccc(C(F)(F)F)c3)[C@H]2C1` (relative stereo) [Cp-3] was tested. Which “% Inhibition at 30 mg/kg” value did it give?
A: 87%

Q: How did the “% Inhibition at 30 mg/kg” value turn out when `CN1C[C@H]2CC[C@@H](c3ccc(F)cc3)[C@H]2C1` (relative stereo) [Cp-5] was run?
A: 87%

Same assay, conditions: sc, 30 min before i.p. 5.5 mg/kg acetylcholine bromide, 10 min observation

Q: How did the “% Inhibition at 30 mg/kg” value turn out when `CN1C[C@H]2CC[C@@H](c3ccccc3)[C@H]2C1` (relative stereo) [Cp-4] was run?
A: 100%

Q: Which “% Inhibition at 30 mg/kg” value does the source give for `CN1C[C@H]2CC[C@@H](c3cccc(C(F)(F)F)c3)[C@H]2C1` (relative stereo) [Cp-6] here?
A: 87%

Q: Which “% Inhibition at 30 mg/kg” value does the source give for `CN1C[C@H]2CC[C@H](c3ccccc3)[C@H]2C1` (relative stereo) [Cp-7] here?
A: 100%
